Laboratory results: ChEMBL document CHEMBL4387741, “Optimization of novel reversible Bruton's tyrosine kinase inhibitors identified using Tethering-fragment-based screens” (Bioorg Med Chem, 2019)

Tests used:
[1] = target: Serine/threonine-protein kinase 4 (Homo sapiens) (UniProt Q13043); experiment: Inhibition of wild-type human full length MST1 (M1 to F487 residues) expressed in bacterial expression system at 1 uM by Kinomescan method relative to control
[2] = AUC (infinity) in po dosed Sprague-Dawley rat using amorphous solid form of compound; format: ADME, organism-based; set-up: route oral, time infinity; conditions: in vivo
[3] = target: Ribosomal protein S6 kinase alpha-5 (Homo sapiens) (UniProt O75582); experiment: Inhibition of wild-type human partial length C-terminal RPS6KA5 kinase domain 2 (V390 to T718 residues) expressed in bacterial expression system at 1 uM by Kinomescan method relative to control
[4] = target: Dual specificity mitogen-activated protein kinase kinase 5 (Homo sapiens) (UniProt Q13163); experiment: Inhibition of wild-type human partial length MEK5 (L98 to P448 residues) expressed in mammalian expression system at 1 uM by Kinomescan method relative to control
Sequence of Dual specificity mitogen-activated protein kinase kinase 5 (Homo sapiens) (Q13163 whole entry, the tested form may be a part): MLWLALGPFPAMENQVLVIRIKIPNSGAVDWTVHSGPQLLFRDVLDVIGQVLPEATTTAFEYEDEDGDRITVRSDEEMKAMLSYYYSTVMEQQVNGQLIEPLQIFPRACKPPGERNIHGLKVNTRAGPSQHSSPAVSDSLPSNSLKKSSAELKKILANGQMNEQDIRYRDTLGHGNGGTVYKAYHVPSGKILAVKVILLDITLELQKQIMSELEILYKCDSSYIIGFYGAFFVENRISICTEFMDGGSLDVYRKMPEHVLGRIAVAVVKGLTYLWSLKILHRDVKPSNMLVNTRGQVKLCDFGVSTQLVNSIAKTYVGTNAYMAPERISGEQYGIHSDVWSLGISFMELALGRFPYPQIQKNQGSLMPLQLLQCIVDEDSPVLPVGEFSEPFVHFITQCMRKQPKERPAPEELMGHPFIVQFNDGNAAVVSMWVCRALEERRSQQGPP

[5] = target: STE20/SPS1-related proline-alanine-rich protein kinase (Homo sapiens) (UniProt Q9UEW8); experiment: Inhibition of wild-type human partial length STK39 (P43 to I357 residues) expressed in mammalian expression system at 1 uM by Kinomescan method relative to control
[6] = target: Mitogen-activated protein kinase kinase kinase 13 (Homo sapiens) (UniProt O43283); experiment: Inhibition of wild-type human full length LZK (M1 to W966 residues) expressed in mammalian expression system at 1 uM by Kinomescan method relative to control
[7] = target: Bone morphogenetic protein receptor type-1A (Homo sapiens) (UniProt P36894); experiment: Inhibition of wild-type human partial length BMPR1A (Q214 to I532 residues) expressed in bacterial expression system at 1 uM by Kinomescan method relative to control
[8] = target: Inhibitor of nuclear factor kappa-B kinase subunit epsilon (Homo sapiens) (UniProt Q14164); experiment: Inhibition of wild-type human full length IKK-epsilon (M1 to V716 residues) expressed in mammalian expression system at 1 uM by Kinomescan method relative to control
[9] = tested on: Phosphatidylinositol 4,5-bisphosphate 3-kinase catalytic subunit alpha isoform (Homo sapiens), P42336 [E542K]; experiment: Inhibition of human partial length PIK3CA E542K mutant (R108 to N1068 residues) expressed in mammalian expression system at 1 uM by Kinomescan method relative to control
[10] = target: Serine/threonine-protein kinase N1 (Homo sapiens) (UniProt Q16512); experiment: Inhibition of wild-type human partial length PKN1 (E598 to C948 residues) expressed in bacterial expression system at 1 uM by Kinomescan method relative to control
[11] = target: Mitogen-activated protein kinase kinase kinase kinase 1 (Homo sapiens) (UniProt Q92918); experiment: Inhibition of wild-type human full length HPK1 (M1 to R799 residues) expressed in bacterial expression system at 1 uM by Kinomescan method relative to control
[12] = target: Protein kinase C delta type (Homo sapiens) (UniProt Q05655); experiment: Inhibition of wild-type human partial length PRKCD (Q328 to D676 residues) expressed in bacterial expression system at 1 uM by Kinomescan method relative to control
[13] = target: Fibroblast growth factor receptor 2 (Homo sapiens) (UniProt P21802); experiment: Inhibition of wild-type human partial length FGFR2 (D457 to E769 residues) expressed in bacterial expression system at 1 uM by Kinomescan method relative to control
[14] = target: Serine/threonine-protein kinase pim-2 (Homo sapiens) (UniProt Q9P1W9); experiment: Inhibition of wild-type human partial length PIM2 (M1 to E291 residues) expressed in bacterial expression system at 1 uM by Kinomescan method relative to control
[15] = tested on: Phosphatidylinositol 4,5-bisphosphate 3-kinase catalytic subunit alpha isoform (Homo sapiens), P42336 [H1047L]; experiment: Inhibition of human partial length PIK3CA H1047L mutant (R108 to N1068 residues) expressed in mammalian expression system at 10 uM by Kinomescan method relative to control
[16] = target: Citron Rho-interacting kinase (Homo sapiens) (UniProt O14578); experiment: Inhibition of wild-type human partial length CIT (M68 to E432 residues) expressed in bacterial expression system at 10 uM by Kinomescan method relative to control
Sequence of Citron Rho-interacting kinase (Homo sapiens) (O14578 whole entry, the tested form may be a part): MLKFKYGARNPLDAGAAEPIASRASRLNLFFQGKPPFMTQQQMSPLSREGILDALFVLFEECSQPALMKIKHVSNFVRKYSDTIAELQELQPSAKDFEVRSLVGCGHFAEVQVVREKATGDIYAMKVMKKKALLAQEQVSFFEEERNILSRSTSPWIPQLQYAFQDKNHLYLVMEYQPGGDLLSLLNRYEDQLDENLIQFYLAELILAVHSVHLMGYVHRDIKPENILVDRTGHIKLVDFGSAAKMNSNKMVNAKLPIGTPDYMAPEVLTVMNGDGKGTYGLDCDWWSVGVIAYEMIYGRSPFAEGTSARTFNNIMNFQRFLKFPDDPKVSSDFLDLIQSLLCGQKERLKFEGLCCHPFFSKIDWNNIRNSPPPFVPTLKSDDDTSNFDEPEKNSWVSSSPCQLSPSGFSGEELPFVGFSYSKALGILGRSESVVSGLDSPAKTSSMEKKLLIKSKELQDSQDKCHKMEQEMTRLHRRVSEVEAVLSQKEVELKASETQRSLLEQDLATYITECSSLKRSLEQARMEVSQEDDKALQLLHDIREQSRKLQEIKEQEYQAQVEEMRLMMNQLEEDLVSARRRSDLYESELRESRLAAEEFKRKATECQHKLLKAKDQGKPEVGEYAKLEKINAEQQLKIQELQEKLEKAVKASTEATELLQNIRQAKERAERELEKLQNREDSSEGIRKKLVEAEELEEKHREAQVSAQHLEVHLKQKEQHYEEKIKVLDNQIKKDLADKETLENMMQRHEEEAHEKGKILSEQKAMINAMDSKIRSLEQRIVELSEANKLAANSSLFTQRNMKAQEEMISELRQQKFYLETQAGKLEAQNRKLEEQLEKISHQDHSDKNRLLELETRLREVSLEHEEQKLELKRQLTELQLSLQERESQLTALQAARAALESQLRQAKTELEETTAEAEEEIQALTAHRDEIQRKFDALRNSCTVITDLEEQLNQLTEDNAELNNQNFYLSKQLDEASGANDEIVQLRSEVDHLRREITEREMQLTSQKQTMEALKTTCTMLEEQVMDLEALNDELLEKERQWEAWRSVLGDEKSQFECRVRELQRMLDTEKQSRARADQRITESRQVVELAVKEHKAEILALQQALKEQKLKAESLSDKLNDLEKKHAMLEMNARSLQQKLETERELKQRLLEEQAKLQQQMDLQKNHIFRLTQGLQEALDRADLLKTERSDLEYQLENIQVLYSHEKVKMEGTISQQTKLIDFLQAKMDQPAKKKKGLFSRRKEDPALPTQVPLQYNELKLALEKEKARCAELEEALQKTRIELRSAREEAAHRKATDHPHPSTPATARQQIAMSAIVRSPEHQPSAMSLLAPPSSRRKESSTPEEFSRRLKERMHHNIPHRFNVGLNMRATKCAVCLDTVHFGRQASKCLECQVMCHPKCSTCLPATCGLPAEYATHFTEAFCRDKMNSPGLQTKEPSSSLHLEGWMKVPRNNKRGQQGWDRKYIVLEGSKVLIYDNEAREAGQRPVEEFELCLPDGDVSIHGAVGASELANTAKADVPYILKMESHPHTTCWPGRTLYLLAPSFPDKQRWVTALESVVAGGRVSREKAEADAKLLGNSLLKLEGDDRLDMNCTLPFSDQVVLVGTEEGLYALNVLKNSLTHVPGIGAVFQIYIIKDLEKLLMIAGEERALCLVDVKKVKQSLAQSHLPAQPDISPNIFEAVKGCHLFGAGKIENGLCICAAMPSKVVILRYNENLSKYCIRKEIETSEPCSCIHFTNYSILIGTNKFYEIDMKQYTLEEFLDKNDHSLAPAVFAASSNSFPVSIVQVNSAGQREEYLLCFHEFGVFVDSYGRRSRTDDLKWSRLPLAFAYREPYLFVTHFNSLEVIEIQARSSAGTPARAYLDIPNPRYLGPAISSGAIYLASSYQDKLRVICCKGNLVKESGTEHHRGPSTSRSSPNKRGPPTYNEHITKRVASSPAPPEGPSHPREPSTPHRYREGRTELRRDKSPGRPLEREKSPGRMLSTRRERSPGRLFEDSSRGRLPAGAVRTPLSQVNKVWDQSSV

[17] = target: Tyrosine-protein kinase Yes (Homo sapiens) (UniProt P07947); experiment: Inhibition of wild-type human partial length YES (T257 to L543 residues) expressed in bacterial expression system at 10 uM by Kinomescan method relative to control
[18] = target: Serine/threonine-protein kinase pim-3 (Homo sapiens) (UniProt Q86V86); experiment: Inhibition of wild-type human partial length PIM3 (G16 to A317 residues) expressed in bacterial expression system at 10 uM by Kinomescan method relative to control
[19] = target: Tyrosine-protein kinase Lck (Homo sapiens) (UniProt P06239); experiment: Inhibition of wild-type human partial length LCK (R207 to P509 residues) expressed in bacterial expression system at 10 uM by Kinomescan method relative to control
Sequence of Tyrosine-protein kinase Lck (Homo sapiens) (P06239 2-509 limits assumed): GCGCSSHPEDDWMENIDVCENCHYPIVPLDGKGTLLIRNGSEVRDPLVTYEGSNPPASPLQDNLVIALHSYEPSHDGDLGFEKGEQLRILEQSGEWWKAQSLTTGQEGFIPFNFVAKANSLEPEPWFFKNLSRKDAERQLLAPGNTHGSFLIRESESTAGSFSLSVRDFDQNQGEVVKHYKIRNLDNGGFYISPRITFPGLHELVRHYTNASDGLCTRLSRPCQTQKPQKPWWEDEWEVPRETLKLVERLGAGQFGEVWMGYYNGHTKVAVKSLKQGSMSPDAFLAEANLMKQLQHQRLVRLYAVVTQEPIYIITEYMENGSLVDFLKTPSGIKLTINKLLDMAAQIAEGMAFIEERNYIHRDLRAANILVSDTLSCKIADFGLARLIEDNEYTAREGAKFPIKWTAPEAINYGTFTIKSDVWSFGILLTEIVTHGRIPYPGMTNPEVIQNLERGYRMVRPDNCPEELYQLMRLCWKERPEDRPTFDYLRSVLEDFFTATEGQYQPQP

[20] = target: Activin receptor type-1 (Homo sapiens) (UniProt Q04771); experiment: Inhibition of wild-type human ACVR1 (C188 to C509 residues) expressed in bacterial expression system at 10 uM by Kinomescan method relative to control
Sequence of Activin receptor type-1 (Homo sapiens) (Q04771 whole entry, the tested form may be a part): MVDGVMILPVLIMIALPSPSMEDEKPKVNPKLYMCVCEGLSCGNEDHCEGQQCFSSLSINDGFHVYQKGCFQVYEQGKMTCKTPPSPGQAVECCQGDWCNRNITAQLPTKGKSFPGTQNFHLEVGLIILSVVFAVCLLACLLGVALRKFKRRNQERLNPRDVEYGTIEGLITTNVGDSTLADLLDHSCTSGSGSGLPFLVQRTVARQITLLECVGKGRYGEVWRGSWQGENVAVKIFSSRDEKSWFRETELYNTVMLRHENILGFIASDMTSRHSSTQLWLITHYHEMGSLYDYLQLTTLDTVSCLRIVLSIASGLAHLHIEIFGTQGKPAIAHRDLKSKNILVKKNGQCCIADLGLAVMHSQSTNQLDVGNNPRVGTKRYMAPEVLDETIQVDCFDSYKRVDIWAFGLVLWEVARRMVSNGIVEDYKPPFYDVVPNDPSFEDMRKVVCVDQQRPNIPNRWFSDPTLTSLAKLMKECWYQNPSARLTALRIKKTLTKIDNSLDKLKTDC

[21] = target: Mitogen-activated protein kinase 4 (Homo sapiens) (UniProt P31152); experiment: Inhibition of wild-type human partial length ERK4 (M1 to L365 residues) expressed in bacterial expression system at 10 uM by Kinomescan method relative to control
[22] = target: Serine/threonine-protein kinase Nek1 (Homo sapiens) (UniProt Q96PY6); experiment: Inhibition of wild-type human partial length NEK1 (M1 to K278 residues) expressed in bacterial expression system at 10 uM by Kinomescan method relative to control
[23] = target: Activin receptor type-1B (Homo sapiens) (UniProt P36896); experiment: Inhibition of wild-type human ACVR1B (S187 to I505 residues) expressed in bacterial expression system at 10 uM by Kinomescan method relative to control
[24] = target: Calcium-dependent protein kinase 1 (Plasmodium falciparum) (UniProt P62344); experiment: Inhibition of wild-type Plasmodium falciparum full length CDPK1 (M1 to S524 residues) expressed in mammalian expression system at 10 uM by Kinomescan method relative to control
[25] = target: Serine/threonine-protein kinase RIO2 (Homo sapiens) (UniProt Q9BVS4); experiment: Inhibition of wild-type human partial length RIOK2 (M1 to D313 residues) expressed in mammalian expression system at 10 uM by Kinomescan method relative to control
Sequence of Serine/threonine-protein kinase RIO2 (Homo sapiens) (Q9BVS4 whole entry, looked up, the tested form may be a part): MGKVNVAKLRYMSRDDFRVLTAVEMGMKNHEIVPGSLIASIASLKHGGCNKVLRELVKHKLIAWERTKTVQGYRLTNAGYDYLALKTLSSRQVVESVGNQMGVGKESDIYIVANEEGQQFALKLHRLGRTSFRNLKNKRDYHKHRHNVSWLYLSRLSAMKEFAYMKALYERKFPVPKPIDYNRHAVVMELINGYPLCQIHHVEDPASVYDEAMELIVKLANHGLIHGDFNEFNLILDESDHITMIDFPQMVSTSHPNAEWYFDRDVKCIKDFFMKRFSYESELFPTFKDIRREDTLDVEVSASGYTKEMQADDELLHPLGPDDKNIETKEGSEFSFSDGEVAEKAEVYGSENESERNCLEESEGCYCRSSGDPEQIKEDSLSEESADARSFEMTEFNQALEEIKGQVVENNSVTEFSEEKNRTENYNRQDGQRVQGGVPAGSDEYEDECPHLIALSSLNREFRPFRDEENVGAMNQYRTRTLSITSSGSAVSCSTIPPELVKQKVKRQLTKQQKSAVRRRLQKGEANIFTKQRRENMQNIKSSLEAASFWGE

[26] = target: 1-phosphatidylinositol 3-phosphate 5-kinase (Homo sapiens) (UniProt Q9Y2I7); experiment: Inhibition of wild-type human partial length PIKFYVE (F1512 to C2098 residues) expressed in mammalian expression system at 10 uM by Kinomescan method relative to control
[27] = target: Serine/threonine-protein kinase PAK 6 (Homo sapiens) (UniProt Q9NQU5); experiment: Inhibition of wild-type human partial length PAK6 (N298 to C681 residues) expressed in bacterial expression system at 10 uM by Kinomescan method relative to control
Sequence of Serine/threonine-protein kinase PAK 6 (Homo sapiens) (Q9NQU5 whole entry, looked up, the tested form may be a part): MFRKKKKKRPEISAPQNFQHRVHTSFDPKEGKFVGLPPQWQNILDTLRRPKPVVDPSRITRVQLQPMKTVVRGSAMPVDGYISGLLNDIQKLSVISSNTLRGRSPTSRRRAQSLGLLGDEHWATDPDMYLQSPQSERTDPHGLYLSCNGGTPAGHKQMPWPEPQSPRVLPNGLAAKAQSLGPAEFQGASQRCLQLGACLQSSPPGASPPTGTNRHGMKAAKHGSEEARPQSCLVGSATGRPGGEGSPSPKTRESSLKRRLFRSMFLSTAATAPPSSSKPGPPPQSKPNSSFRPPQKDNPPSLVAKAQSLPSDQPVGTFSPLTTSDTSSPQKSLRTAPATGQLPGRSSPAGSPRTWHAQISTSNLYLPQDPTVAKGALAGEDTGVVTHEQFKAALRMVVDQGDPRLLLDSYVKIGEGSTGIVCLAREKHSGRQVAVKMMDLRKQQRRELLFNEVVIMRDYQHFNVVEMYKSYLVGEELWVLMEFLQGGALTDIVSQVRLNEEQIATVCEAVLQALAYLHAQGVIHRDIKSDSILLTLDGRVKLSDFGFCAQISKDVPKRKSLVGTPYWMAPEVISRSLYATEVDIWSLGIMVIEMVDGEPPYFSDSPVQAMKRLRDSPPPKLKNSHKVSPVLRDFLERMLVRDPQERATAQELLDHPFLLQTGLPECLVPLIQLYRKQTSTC

## O=C(Nc1cccc([C@@H]2CN(c3ncnc4[nH]ccc34)CCN2CCO)c1)Nc1c(F)cccc1N1CCCC1
[1]
  inhibition: 78%
[2]
  AUC(0-inf): 1890 ng·h/mL
[3]
  inhibition: 96%
[4]
  inhibition: 67%
[5]
  inhibition: 75%
[6]
  inhibition: 100%
[7]
  inhibition: 100%
[8]
  inhibition: 96%
[9]
  inhibition: 79%
[10]
  inhibition: 80%
[11]
  inhibition: 100%
[12]
  inhibition: 85%
[13]
  inhibition: 54%
[14]
  inhibition: 100%

## O=C(Nc1cccc([C@H]2CCCN(c3ncnc4[nH]ccc34)C2)c1)Nc1ccccc1N1CCCC1
[15]
  inhibition: 100%
[16]
  inhibition: 0.2%
[17]
  inhibition: 62%
[18]
  inhibition: 89%
[19]
  inhibition: 48%
[20]
  inhibition: 100%
[21]
  inhibition: 100%
[22]
  inhibition: 100%
[23]
  inhibition: 100%
[24]
  inhibition: 9.9%
[25]
  inhibition: 72%
[26]
  inhibition: 77%
[27]
  inhibition: 85%
